Assay results: patent publication US12403184B2, “Compositions and methods for treating neurodegenerative disroders” (priority 2018, dated 2025)
Where no end group is shown, it is not given here.

Key:
Drp1/ATAD3A = target: T1, Drp1/ATAD3A (Mus musculus, UniProt Q925I1); experiment: Immunoprecipitation of Drp1/ATAD3A binding in mouse striatal cells; format: cell-based
T1 construct: The total lysates of cells or mouse striatum were subject to IP analysis; endogenous in cells; host or cells: HdhQ7 / HdhQ111 mouse striatal cells; wild-type mouse striatal cells exposed to 3-NP
T1 sequence (Q925I1 2-591 limits assumed): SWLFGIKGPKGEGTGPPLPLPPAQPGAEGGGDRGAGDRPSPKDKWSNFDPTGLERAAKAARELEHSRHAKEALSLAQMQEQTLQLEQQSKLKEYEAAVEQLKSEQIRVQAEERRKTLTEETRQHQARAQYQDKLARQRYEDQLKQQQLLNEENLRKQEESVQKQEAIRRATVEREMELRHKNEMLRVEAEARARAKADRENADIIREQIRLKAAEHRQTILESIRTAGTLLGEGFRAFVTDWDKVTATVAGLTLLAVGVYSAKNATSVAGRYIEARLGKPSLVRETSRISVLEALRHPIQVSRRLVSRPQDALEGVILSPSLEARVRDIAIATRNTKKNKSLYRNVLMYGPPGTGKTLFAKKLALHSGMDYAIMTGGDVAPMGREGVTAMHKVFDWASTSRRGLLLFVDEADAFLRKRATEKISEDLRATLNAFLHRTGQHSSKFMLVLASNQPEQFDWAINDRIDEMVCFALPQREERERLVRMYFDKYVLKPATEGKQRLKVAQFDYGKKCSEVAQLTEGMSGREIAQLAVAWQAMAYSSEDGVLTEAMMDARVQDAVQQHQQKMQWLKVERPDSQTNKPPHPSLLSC
Experimental: Cells and mouse brain tissues were harvested and lysed in total lysis buffer ([…], pH 7.9, […], […], 1% Triton X-100, and protease inhibitor cocktail) for 30 mins on ice and centrifuged at 12,000×g for 10 min at 4° C. The supernatants were incubated with the indicated primary antibodies or control IgG (sc-2025 and sc-2027, Santa Cruz Biotechnology) overnight at 4° C., followed by incubation with protein A/G beads (sc-2003, Santa Cruz Biotechnology) for 2 h at 4° C. The immunoprecipitates were washed with lysis buffer three times for a total of 30 min and then subject to WB analysis.

ATAD3A = target: T2, ATAD3A (Mus musculus, UniProt Q925I1); experiment: ATAD3A dimerization by western blot, Neuro2A cells; format: cell-based; settings: Neuro2a cells exposed to 3-NP, non-reducing conditions
T2 construct: endogenous in cells; host or cells: Neuro2A cells
T2 sequence (Q925I1 1-591): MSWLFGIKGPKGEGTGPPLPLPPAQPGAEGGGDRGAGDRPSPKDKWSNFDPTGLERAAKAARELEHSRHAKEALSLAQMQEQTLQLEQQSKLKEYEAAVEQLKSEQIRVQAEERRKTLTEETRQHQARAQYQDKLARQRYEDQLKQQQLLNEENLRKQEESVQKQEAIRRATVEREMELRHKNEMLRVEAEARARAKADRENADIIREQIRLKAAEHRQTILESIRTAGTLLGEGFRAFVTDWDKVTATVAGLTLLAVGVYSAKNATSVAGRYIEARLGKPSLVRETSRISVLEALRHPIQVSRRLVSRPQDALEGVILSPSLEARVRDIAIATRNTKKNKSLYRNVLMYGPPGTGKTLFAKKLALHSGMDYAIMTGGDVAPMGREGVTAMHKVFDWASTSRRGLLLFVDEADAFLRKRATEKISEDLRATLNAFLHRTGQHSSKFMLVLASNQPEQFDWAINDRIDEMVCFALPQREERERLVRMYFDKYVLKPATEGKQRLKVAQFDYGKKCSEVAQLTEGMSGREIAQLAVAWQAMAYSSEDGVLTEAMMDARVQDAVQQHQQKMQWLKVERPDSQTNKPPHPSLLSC
Experimental: To analyze dimerization of ATAD3A under non-reducing conditions, the cells or tissues were harvested and lysed with total lysates buffer. An equal amount of proteins was subject to 8% SDS-PAGE analysis in the presence or absence of β-mercaptoethanol (β-ME). For in vitro BMH crosslinking, the cell lysates were incubated with 1 mM BMH at r.t. for up to 25 min and quenched with 0.1% β-ME, followed by SDS-PAGE analysis. For in-vivo crosslinking, the cells were treated with cell-permeable crosslinker BMH (1 mM) for 20 min at 37° C. After crosslinking, the cells were quenched in PBS with 0.1% β-ME. For DSP crosslinking, the cells were treated with cell-permeable crosslinker for 5 min at 37° C., followed by quenching and washing with 10 mM Glycine in PBS. For formaldehyde (FA) crosslinking, the cells were incubated with PBS buffer containing 1% FA for 20 min at r.t., and the crosslinking reaction was terminated by washing in PBS containing 100 mM glycine. The cells were then lysed and subject to 8% SDS-PAGE analysis. For DTSSP crosslinking of proteins in mitochondrial fractions, isolated mitochondria samples were suspended in the mitochondrial lysis buffer (250 mM sucrose, 20 mM HEPES-NaOH, pH 7.5, 10 mM KCl, 1.5 mM MgCl2, 1 mM EDTA, 1 mM EGTA and protease inhibitor). An equal amount of crude mitochondria was incubated at 30° C. in the presence of 0.5 mM DTSSP. […]

| Compound | binding of Drp1/ATAD3A (Drp1/ATAD3A; HdhQ111 cells, peptide 1 μM/day for 4 days, vs TAT) | interaction between Drp1 and ATAD3A (Drp1/ATAD3A; wildtype mouse striatal cells, 3-NP 5 mM for 4 h) | ATAD3A dimerization (ATAD3A) |
| --- | --- | --- | --- |
| YGRKKRRQRRR-GG-EERRKT-NH2 (YGRKKRRQRRRGGEERRKT-NH2) [DA2, peptide from ATAD3A coiled-coil region homologous to Drp1, conjugated to TAT47-57] | a trend toward inhibition |  |  |
| O=C(O)CC[N+](=O)[O-] [3-NP, 3-nitropropionic acid, reference compound] |  | induced | increased |
